Experimental data taken from US7563598B2 (Ambergen, Inc., priority 2004, dated 2009).
“Also recorded” adds a separate entry of the source. Where two headings read alike, the source gives them in different places. Square brackets hold non-standard residues; d marks the D form. Peptide text beside a SMILES is read from it. * marks the point of attachment. Nva = CCC[C@H](N)C(=O)O; Cbz = O=C(OCc1ccccc1)*

Columns and labels:
[1] = system: proteases in rabbit reticulocyte extract; details: extract pre-treated with inhibitor, then R6; MALDI
Description: In this experiment, protease inhibitors were tested to inhibit the degradation of the peptide R6 (described above). In one experiment, 10 μL of rabbit reticulocyte extract was pre-treated by incubating with a specific protease inhibitor such as ebelactone or 2-LeuLeuNVa-CHO for 10-15 min. Following pretreatment, peptide R6 was added to above translation mix and incubated for 10 min at 30° C. The reaction was terminated by addition of 100 μL of 100 mM EDTA and the solution was immediately applied to the microcolumn containing 1 μL of Sigma ANTI-FLAG beads. The beads were then washed with 50 μL of 20 mM Tris-HCl, pH 7.2 and the bound peptide was eluted with approximately 4 μL of matrix solution (CHCA/acetonitrile/TFA) directly onto a MALDI plate. In the control experiment, extract pre-treated with buffer was used and processed as described above.
2 μL of the above protease inhibitor solution was added to 10 μL of the translation mixture.

[2] = system: proteolysis in PURE I reconstituted E. coli translation system; format: biochemical
protein synthesis = assay: Effect of protease inhibitors on protein synthesis in the translation system; format: biochemical
[3] = system: protease activity of E. coli translation extract; assay: Mass spectrometry assay of inhibition of R6 degradation in E. coli translation extract; details: extract pre-treated with inhibitor, then R6; MALDI
Description: In this experiment, protease inhibitors were tested to inhibit the degradation of the peptide R6 (described above). […] Following pretreatment, peptide R6 was added to above translation mix and incubated for 10 min at 30° C. The reaction was terminated by addition of 100 μL of 100 mM EDTA and the solution was immediately applied to the microcolumn containing 1 μL of Sigma ANTI-FLAG beads. The beads were then washed with 50 μL of 20 mM Tris-HCl, pH 7.2 and the bound peptide was eluted with approximately 4 μL of matrix solution (CHCA/acetonitrile/TFA) directly onto a MALDI plate. In the control experiment, extract pre-treated with buffer was used and processed as described above. Similar experiments were carried out using E. coli translation extract.

[4] = system: protein synthesis in rabbit reticulocyte lysate; format: biochemical
[5] = Solution B of the PURE kit (Post-Genome Institute); details: 37 degrees, up to 20 minutes (or 10 minutes)
[6] = rabbit reticulocyte lysate (RRL extract); details: 30° C., up to 5 min
[7] = PURE I reconstituted E. coli translation system, all components except the DNA; details: 37° C., up to 15 min
[8] = zonally purified E. coli ribosomes
[9] = heat denatured rabbit reticulocyte extract (by boiling at 100° C. for 5 min in presence of SDS); details: 30° C.
[10] = system: rabbit reticulocyte lysate, wheat germ extract, E. coli S30 extract; details: within several minutes after incubation with the translation mixtures
Description: 100 picomoles of the synthetic R6 peptide in 1 microliter of water is added to 5 ul of a test solution and incubated for 20 minutes (or 10 minutes) at 37 degrees. 50 ul of PBS is then added to the test mixture and the resulting solution is passed over a 1 microliter anti-FLAG microcolumn (which recognizes the epitope sequence at the N terminus of the R6 peptide). The column is washed with 50 ul of deionized water and the bound peptides are eluted directly onto the maldi plate using 1 microliter of CHCA matrix in 50% acetonitrile/0.2% TFA/49.8% deionized water. The intact R6 peptide and degradation products are detected by Maldi-Tof mass spectrometry in positive ion linear mode.

Description for Amber-PURE: In order to remove the protease activity from solution B, 100 ul of solution B was added to 200 ul of deionized water and spun through a YM100 Microcon filter with a 100 kDa cut-off (Millipore, Inc) at 10,000 rpm for 5 minutes in a benchtop microfuge at room temperature. […] A 10 ul aliquot contains 3 ul of diluted and filtered solution B, 7 ul of solution A and 10 picomoles of zonally purified ribosomes.
In this example, the protease-depleted system is used to produce the reference peptide (R6) by in vitro translation using DNA coding for the R6 peptide.

In the case of `CCC[C@@H](C=O)NC(=O)[C@H](CC(C)C)NC(=O)[C@H](CC(C)C)NC(=O)OCc1ccccc1` [2-LeuLeuNvaCHO] (Cbz-Leu-Leu-[Nva]-aldehyde), the “inhibition of R6 degradation (protease activity) in rabbit reticulocyte extract” value [1] is reported as “significant reduction in protease activity”.
For `NCCc1ccc(S(=O)(=O)F)cc1` [AEBSF], the “inhibition of R6 proteolysis in PURE I” value ([2]; inhibitor pre-incubated 15-30 min, R6 15 min at 37° C.) was “excellent inhibition” and the “inhibition of protein synthesis” value (protein synthesis; if used together with "Pefabloc protector") was “could also inhibit protein synthesis”.
For `CC(C)C[C@H](NC(=O)[C@@H](NC(=O)N[C@@H](Cc1ccccc1)C(=O)O)[C@@H]1CCN=C(N)N1)C(=O)N[C@H](C=O)Cc1ccccc1` [Chymostatin], the “inhibition of protease activity (R6 degradation) in E. coli translation extract” value [3] was “only weakly inhibited”.
For `C[C@@H]1C[C@@H]([C@H](O)CC2CC(=O)NC(=O)C2)C(=O)[C@@H](C)C1` [cycloheximide], the “inhibition of protein synthesis” value [4] was “completely inhibited”.
In the case of Ebelactone, the “inhibition of R6 degradation (protease activity) in rabbit reticulocyte extract” value [1] is reported as “only weak protease inhibition”.
With MDYKDDDDKRRRRRRFFF the cleaved bond [5] was “R-R”, the cleaved bond [6] was “Phe-Phe, minor, 1 min; also recorded: Arg-Arg, 1 min” and the fragment found [7] was “MDYKDDDDKRRRRR, major, 15 min”. The not cleaved [8] was “devoid of protease activity”.
With MYTDIEMNRLGK the not cleaved [9] was “retains complete peptide signal”.
In the case of “R6: protease-sensitive peptide, sequence MDYKDDDDKRRRRRRFFF (SEQ ID NO:152), FLAG epitope at the N-terminus (N-terminal FLAG epitope)”, the “peptide product obtained by in vitro translation” value (Amber-PURE) is reported as “intact patent peptide”, the “degradation of sub-nanomolar amounts of peptide” value [10] is reported as “complete degradation” and the “peptide products obtained by in vitro translation” value (PURE) is reported as “correspond to degradation products”. For the same compound, the “intact peptide after incubation with PURE I mixture” value ([2]; 15 min, 37° C., no inhibitor) was “disappearance of the intact R6 peptide”.
In the case of aprotinin, the “inhibition of protein synthesis” value (protein synthesis) is reported as “inhibit protein synthesis” and the “inhibition of protease activity (R6 degradation) in E. coli translation extract” value [3] is reported as “significant inhibition”.
